Drawing on paper PMC3639963, “A New Class of Small Molecule Inhibitor of BMP Signaling” (PLoS ONE, 2013), this text covers inhibition for two compounds.

What all share (test): Nanosyn kinase profiling
Format in all cases: biochemical
Common to all, as to conditions: read-out: Percentage inhibition; for inhibition at 0.1 µM: 0.1 µM inhibitor; for inhibition at 1 µM: 1 µM inhibitor

One test addresses T1, GSK3α (Homo sapiens, UniProt P49840).
T1 construct: purchased Nanosyn (enzymatic panel); SGC in-house recombinant human kinases (DSF panel); Invitrogen (ALK1-6)
Summed up:
(§1)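 Percent inhibition of each kinase was measured with the inhibitor at 0.1 µM and at 1 µM, as part of a 200-kinase human selectivity panel.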

Another test concerns the target T2, PI3-K-δ (Homo sapiens, UniProt O00329).
T2 construct: purchased Nanosyn (enzymatic panel); SGC in-house recombinant human kinases (DSF panel); Invitrogen (ALK1-6)
Summed up: as §1

The next test concerns the target T3, IKK-β (Homo sapiens, UniProt O14920).
T3 construct: purchased Nanosyn (enzymatic panel); SGC in-house recombinant human kinases (DSF panel); Invitrogen (ALK1-6)
T3 sequence (O14920 1-756): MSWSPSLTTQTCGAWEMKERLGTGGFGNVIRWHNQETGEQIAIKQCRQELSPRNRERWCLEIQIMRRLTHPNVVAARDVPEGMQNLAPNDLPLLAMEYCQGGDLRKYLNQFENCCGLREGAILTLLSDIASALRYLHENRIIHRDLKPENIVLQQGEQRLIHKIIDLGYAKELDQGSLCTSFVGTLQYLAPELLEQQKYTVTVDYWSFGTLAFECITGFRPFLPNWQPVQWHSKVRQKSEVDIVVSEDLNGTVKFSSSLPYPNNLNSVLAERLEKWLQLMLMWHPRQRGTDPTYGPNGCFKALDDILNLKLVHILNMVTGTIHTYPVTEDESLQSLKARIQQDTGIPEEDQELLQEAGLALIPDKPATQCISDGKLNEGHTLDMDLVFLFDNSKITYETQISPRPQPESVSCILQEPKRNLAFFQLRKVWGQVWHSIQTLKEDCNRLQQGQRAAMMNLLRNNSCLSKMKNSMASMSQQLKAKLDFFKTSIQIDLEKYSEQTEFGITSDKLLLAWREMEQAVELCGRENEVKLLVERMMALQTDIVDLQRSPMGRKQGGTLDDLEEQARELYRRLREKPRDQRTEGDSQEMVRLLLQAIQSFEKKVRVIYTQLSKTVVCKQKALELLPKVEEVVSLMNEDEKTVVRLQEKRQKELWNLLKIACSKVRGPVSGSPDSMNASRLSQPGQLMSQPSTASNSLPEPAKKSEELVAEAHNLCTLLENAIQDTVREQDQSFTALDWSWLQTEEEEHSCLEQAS
The method in brief:
as §1

The target in a further test is T4, CLK2 (Homo sapiens, UniProt P49760).
T4 construct: purchased Nanosyn (enzymatic panel); SGC in-house recombinant human kinases (DSF panel); Invitrogen (ALK1-6)
The method in brief: as §1

For a further test, the target named is T5, IKK-α (Homo sapiens, UniProt O15111).
T5 construct: purchased Nanosyn (enzymatic panel); SGC in-house recombinant human kinases (DSF panel); Invitrogen (ALK1-6)
T5 sequence (O15111 1-745): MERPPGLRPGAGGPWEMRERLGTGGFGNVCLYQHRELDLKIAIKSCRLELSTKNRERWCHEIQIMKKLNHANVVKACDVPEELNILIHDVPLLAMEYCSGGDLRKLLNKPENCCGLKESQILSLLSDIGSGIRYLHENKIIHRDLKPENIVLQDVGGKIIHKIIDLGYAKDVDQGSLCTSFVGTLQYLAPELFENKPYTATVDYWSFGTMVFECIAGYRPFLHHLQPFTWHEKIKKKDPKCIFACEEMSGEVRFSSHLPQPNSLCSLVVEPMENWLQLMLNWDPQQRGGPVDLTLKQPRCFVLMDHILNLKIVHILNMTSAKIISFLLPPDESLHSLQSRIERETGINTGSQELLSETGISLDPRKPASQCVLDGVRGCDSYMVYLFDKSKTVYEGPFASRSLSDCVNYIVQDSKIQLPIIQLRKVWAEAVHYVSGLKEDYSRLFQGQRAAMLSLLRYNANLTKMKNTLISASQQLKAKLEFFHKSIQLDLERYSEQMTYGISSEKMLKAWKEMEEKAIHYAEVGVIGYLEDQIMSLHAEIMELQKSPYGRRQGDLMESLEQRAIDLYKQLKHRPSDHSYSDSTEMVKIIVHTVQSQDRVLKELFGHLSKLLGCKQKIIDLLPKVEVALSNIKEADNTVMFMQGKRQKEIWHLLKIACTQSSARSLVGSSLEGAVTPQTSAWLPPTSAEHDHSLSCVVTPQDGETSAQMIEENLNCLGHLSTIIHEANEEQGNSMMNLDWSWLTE
Summed up:
as §1

Another test has as its target T6, MST2 (Homo sapiens, UniProt Q13188).
T6 construct: purchased Nanosyn (enzymatic panel); SGC in-house recombinant human kinases (DSF panel); Invitrogen (ALK1-6)
T6 sequence (Q13188 1-491): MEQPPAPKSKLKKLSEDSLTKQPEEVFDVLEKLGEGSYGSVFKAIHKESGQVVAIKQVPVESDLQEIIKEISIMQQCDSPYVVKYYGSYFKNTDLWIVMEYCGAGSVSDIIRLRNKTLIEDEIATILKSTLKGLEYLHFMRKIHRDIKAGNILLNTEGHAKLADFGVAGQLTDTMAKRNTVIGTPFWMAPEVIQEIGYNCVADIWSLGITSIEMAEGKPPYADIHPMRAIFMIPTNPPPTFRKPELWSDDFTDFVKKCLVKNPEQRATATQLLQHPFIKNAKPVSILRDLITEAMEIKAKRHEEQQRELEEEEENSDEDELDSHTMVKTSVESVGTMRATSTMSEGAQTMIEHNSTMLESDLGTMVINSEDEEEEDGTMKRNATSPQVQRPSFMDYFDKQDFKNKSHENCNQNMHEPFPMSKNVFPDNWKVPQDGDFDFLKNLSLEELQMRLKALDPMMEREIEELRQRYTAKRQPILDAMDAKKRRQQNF
The method in brief:
as §1

Another test addresses T7, CAMK2δ (Homo sapiens, UniProt Q13557).
T7 construct: purchased Nanosyn (enzymatic panel); SGC in-house recombinant human kinases (DSF panel); Invitrogen (ALK1-6)
Summed up: as §1

The next test has as its target T8, CSK (Homo sapiens, UniProt P41240).
T8 construct: purchased Nanosyn (enzymatic panel); SGC in-house recombinant human kinases (DSF panel); Invitrogen (ALK1-6)
Summed up:
as §1

In another test the target is T9, AURKB (Homo sapiens, UniProt Q96GD4).
T9 construct: purchased Nanosyn (enzymatic panel); SGC in-house recombinant human kinases (DSF panel); Invitrogen (ALK1-6)
Summed up: as §1

T9 sequence (Q96GD4 whole entry): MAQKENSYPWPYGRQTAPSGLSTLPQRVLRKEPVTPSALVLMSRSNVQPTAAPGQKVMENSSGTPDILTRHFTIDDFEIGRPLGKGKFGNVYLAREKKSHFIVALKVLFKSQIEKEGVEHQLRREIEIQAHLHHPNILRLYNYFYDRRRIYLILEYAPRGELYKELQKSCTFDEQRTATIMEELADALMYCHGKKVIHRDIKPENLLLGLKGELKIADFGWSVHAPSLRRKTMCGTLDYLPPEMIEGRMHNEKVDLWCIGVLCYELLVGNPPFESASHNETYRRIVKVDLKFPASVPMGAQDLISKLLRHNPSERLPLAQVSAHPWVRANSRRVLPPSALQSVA
T2 sequence (O00329 whole entry): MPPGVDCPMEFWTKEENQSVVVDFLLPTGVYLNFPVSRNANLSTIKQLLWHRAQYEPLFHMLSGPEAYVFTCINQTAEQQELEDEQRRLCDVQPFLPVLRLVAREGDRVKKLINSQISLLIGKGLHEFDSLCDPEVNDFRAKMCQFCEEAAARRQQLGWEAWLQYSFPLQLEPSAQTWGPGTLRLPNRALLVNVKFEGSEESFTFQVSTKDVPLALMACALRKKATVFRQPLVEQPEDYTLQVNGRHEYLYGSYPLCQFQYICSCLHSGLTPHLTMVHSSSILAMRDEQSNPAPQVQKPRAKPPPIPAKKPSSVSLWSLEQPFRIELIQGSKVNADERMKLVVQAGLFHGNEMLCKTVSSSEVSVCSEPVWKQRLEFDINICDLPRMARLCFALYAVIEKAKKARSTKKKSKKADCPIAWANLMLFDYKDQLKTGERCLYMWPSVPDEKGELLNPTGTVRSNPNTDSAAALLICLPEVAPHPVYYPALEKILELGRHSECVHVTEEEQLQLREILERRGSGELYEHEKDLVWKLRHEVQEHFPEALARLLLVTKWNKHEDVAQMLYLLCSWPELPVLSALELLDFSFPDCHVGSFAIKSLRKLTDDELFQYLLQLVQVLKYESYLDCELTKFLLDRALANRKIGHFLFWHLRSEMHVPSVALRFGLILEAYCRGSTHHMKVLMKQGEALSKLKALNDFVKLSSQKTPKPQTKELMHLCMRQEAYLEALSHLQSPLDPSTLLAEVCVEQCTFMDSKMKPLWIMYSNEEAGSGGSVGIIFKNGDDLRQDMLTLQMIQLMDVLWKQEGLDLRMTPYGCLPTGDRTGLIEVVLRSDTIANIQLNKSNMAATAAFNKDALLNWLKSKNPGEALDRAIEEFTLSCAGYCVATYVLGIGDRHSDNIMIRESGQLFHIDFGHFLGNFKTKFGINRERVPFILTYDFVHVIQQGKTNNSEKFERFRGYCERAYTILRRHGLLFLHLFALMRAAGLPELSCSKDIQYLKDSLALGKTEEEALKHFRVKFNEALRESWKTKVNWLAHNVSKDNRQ
T2 sequence (P27986 whole entry partner): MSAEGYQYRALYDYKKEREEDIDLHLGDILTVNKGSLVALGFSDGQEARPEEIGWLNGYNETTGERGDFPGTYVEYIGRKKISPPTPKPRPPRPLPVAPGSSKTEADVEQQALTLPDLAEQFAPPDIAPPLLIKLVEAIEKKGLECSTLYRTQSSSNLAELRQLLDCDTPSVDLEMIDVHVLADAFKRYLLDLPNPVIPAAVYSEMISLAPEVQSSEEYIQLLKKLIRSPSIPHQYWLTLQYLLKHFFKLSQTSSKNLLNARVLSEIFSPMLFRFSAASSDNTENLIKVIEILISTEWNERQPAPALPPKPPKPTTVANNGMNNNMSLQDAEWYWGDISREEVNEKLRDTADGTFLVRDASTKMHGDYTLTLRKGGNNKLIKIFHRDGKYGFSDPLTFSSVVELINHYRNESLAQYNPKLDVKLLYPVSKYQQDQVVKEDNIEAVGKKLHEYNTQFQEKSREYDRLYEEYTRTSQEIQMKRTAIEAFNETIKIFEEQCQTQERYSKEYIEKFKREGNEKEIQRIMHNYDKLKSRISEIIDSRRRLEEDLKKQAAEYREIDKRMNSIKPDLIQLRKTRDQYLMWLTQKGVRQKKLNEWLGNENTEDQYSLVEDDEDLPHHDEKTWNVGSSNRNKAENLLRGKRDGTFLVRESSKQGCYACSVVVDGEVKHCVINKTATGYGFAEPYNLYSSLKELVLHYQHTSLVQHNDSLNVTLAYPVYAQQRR
T1 sequence (P49840 whole entry): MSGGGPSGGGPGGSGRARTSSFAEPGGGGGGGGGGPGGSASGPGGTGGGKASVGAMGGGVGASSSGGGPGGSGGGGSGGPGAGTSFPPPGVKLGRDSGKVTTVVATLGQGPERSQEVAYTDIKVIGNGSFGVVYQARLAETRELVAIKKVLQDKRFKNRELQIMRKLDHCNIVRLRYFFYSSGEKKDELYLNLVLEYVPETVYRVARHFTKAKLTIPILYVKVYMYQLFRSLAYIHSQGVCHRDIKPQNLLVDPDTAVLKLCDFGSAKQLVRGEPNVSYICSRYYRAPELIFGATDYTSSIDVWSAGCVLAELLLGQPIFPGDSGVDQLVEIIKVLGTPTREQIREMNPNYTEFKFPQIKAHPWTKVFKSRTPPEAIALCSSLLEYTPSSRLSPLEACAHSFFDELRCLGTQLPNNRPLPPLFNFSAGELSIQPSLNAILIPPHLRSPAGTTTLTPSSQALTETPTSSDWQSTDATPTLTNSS
T4 sequence (P49760 whole entry): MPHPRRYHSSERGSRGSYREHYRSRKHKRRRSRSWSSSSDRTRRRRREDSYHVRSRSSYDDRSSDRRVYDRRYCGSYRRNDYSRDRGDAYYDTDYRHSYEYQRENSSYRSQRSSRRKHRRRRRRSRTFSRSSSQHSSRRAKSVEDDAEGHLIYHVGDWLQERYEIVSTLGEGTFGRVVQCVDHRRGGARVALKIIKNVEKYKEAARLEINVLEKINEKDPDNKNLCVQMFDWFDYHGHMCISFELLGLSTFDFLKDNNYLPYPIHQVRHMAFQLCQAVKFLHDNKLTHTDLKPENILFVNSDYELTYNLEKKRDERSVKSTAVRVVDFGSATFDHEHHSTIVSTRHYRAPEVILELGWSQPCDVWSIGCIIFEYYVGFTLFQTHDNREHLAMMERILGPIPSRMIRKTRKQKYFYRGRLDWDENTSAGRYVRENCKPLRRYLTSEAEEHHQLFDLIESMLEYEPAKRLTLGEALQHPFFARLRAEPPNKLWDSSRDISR
T7 sequence (Q13557 whole entry): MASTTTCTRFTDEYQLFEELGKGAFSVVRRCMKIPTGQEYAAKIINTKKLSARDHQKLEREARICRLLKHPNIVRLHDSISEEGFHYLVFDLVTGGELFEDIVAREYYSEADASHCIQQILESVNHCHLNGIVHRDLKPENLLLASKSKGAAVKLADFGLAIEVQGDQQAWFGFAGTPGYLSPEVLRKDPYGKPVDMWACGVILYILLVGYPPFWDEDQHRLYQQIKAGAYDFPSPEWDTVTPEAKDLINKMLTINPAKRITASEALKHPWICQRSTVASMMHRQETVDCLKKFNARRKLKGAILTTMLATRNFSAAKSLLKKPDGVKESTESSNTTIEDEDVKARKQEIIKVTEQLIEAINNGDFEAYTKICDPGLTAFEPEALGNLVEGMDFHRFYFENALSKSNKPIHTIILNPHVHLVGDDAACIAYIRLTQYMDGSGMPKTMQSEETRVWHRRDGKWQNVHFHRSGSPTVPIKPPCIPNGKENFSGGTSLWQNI
T8 sequence (P41240 whole entry): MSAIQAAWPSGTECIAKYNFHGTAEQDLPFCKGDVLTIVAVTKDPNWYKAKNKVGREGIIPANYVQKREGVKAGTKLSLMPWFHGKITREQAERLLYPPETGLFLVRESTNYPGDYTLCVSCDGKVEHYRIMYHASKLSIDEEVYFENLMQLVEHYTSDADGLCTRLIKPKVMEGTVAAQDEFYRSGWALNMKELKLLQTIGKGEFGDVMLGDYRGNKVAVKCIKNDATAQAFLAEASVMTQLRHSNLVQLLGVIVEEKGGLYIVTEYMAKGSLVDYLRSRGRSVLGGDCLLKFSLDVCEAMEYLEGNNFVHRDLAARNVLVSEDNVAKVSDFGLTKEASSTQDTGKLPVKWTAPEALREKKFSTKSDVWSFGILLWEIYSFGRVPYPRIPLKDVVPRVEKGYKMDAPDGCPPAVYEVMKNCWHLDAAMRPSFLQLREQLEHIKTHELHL

The term inhibition denotes the drop in the measured response relative to a control, in per cent. As for `COc1cc(-c2cc(-c3cccc(O)c3)cnc2N)cc(OC)c1OC` [K02288, 3-[6-amino-5-(3,4,5-trimethoxy-phenyl)-pyridin-3-yl]-phenol], the inhibition at 0.1 µM at GSK3α was 0.6%; on PI3-K-δ it was 0.8%; on IKK-β, -2%; on CLK2, 0%; at IKK-α, 7.4%; at MST2 it was -2%. The inhibition at 0.1 µM was -1% on CAMK2δ, 3.2% at CSK and 0.3% on AURKB. The inhibition at 1 µM on GSK3α was 2.1%; on PI3-K-δ, 2.5%; on IKK-β it was 1.3%; at CLK2, 0%; on IKK-α, 2.7%; on MST2 it was -1%. Further, the inhibition at 1 µM came to 1.4% at CAMK2δ, 13% at CSK and 1.5% at AURKB.

As to `c1ccc2c(-c3cnn4cc(-c5ccc(N6CCNCC6)cc5)cnc34)ccnc2c1` [LDN-193189], the inhibition at 0.1 µM at GSK3α is 3.2%; at PI3-K-δ, -1%; on IKK-β, 0.3%; at CLK2, 2.3%; at IKK-α it was 3%; at MST2 it was 5.1%. In addition, the inhibition at 0.1 µM was 3.1% at CAMK2δ, 3.3% at CSK and 2.3% on AURKB. For the same compound, the inhibition at 1 µM on GSK3α was 1.1%; on PI3-K-δ, 10%; on IKK-β, 1.4%; at CLK2, 35%; on IKK-α it was -2%; on MST2, 6%. For the same compound, the inhibition at 1 µM at CAMK2δ stood at 8.7%; on CSK, 6%; on AURKB, 15%.
